Results: PMC5938390, “Tachyplesin Causes Membrane Instability That Kills Multidrug-Resistant Bacteria by Inhibiting the 3-Ketoacyl Carrier Protein Reductase FabG” (Frontiers in Microbiology, 2018)
Positions of bridges follow the written chain, without caps; N, C: chain ends. Residues, ends and D or L forms follow the SMILES beside them.

What was measured:
[1] = test system: L929 (mouse fibroblast cell line); conditions: concentration increased from 50 mg/L to 100 mg/L, XTT
Experimental: (§1) These studies were carried out as we previously reported with slight modifications and briefly introduced as follows ([Liu et al., 2017]). […] Cytotoxicity in different cell lines was assessed using the Cell Proliferation Kit II (XTT) (Roche), and cytotoxicity in hemocytes was evaluated by the increase in the absorbance at 540 nm after peptide incubation. Membrane rupture was indicated by the entrance of the DNA-binding fluorescent dye PI into MDR clinical isolates of P. aeruginosa strain 1409. Membrane translocation of N-terminal FITC-conjugated tachyplesin III (purity ≥ 95%, synthesized by GL Biochem Co., Ltd, Shanghai, China) into MDR clinical isolates of Acinetobacter baumannii strain 1408 were detected by confocal laser-scanning microscopy.
(§2) Cytotoxicity of tachyplesin III was tested by hemolysis and cell viability assays. (A) Tachyplesin III dissolved in 0.9% saline was added to mouse erythrocytes that were diluted with the same buffer. After 30 min of incubation at 37°C and then centrifugation at 1000 g for 15 min, supernatants were diluted 1:4 with 0.9% saline, and absorbance at 540 nm was tested. With 1% Triton X-100 (v/v) to determine 100% hemolysis and 0.9% saline as the negative control, the hemolysis rate was calculated as [(Absorbancesample^-Absorbancecontrol)/(Absorbance100%^-Absorbancecontrol)] × 100. Cytotoxicity was assessed using the Cell Proliferation Kit II (XTT) (Roche) for (B) L929 (mouse fibroblast cell line), (C) 293FT (human embryonic kidney cell line) and (D) A549 (adenocarcinomic human alveolar basal epithelial cell line) cells. Absorbance [A492-A690 nm] was used to quantify viable cells.

[2] = test system: A549 (adenocarcinomic human alveolar basal epithelial cell line); conditions: concentration increased from 200 mg/L to 400 mg/L, XTT
Experimental: as §1, §2

[3] = test system: 293FT (human embryonic kidney cell line); conditions: concentration increased from 100 mg/L to 200 mg/L, XTT
Experimental: as §1, §2

FabG gene = experiment: FabG transcription level by quantitative real-time PCR; assay type: cell-based, A. baumannii, E. coli, K. pneumoniae, P. aeruginosa; conditions: all four bacteria, RNAs from transcriptome analysis (16 μg/ml, 30 min), 2^-ΔΔCT, rpsL reference
Experimental: Quantitative real-time PCR (RT-PCR) was performed following the 2^-ΔΔCT method with RNAs from the aforementioned transcriptome analysis ([Livak and Schmittgen, 2001]; [Liu C. et al., 2014]). Untreated pathogen strains were used as the calibrator strains, and corresponding ribosomal rpsL genes were used as housekeeping reference genes with the primers shown in Supplementary Table S1 ([Dumas et al., 2006]).
FIGURE 5 Expression of FabG increased after tachyplesin treatment. Quantitative real-time PCR was performed following the 2^-ΔΔCT method. Untreated pathogen strains were used as the calibrator strains, and the corresponding ribosomal rpsL genes were used as housekeeping reference gene with the primers shown in Supplementary Table S1.

P. aeruginosa 1409 = assay type: cell-based, Pseudomonas aeruginosa; conditions: Pa; Ta 16 μg/ml, 30 min, 37°C
Experimental: (§3) The Vitek 32 system (bioMerieux, France) and 16S rDNA sequencing were used to verify the clinical isolates A. baumannii 1408, P. aeruginosa 1409, Klebsiella pneumoniae 5 and E. coli 513, which were grown overnight in Luria-Bertani (LB) medium at 37°C with constant shaking at 220 rpm to reach the middle of their logarithmic growth phase. […] After the addition of 2 volumes of RNAprotect Bacteria Reagent (QIAGEN) to stabilized RNA, samples were vortexed for 5 s, incubated for 5 min at room temperature (15–25°C) and collected by centrifugation at 4°C for 5 min at 4000 g.
(§4) RNA isolation and sequencing were performed by Novogene Bioinformatics Technology Co., Ltd. (Beijing, China) as previously described ([Liu B. et al., 2014]). Clean reads were mapped to the corresponding bacterial genomes using Bowtie 2 software ([Langmead and Salzberg, 2012]). Gene expression was calculated using the FPKM (expected number of fragments per kilobase of transcript sequence per millions of base pairs sequenced) method with HTSeq software (union model) ([Anders et al., 2015]). Differentially expressed genes were selected based on the DESeq R package with Padj values < 0.05 ([Anders and Huber, 2010]). KEGG pathway analysis was performed using KOBAS (2.0), and the corrected p value cut-off was set at 0.05 ([Li et al., 2015]).

E. coli 513 = experiment: Transcriptome analysis (RNA sequencing, FPKM, DESeq); assay type: cell-based, Escherichia coli; conditions: Ec; Ta 16 μg/ml, 30 min, 37°C
Experimental: as §3, §4

## CC[C@H](C)[C@@H]1NC(=O)CNC(=O)[C@H](CCCNC(=N)N)NC(=O)[C@H](Cc2ccc(O)cc2)NC(=O)[C@@H]2CSSC[C@H](NC1=O)C(=O)N[C@@H](Cc1ccc(O)cc1)C(=O)N[C@@H](CCCNC(=N)N)C(=O)N[C@@H](CCCCN)C(=O)N[C@H](C(=O)N[C@@H](CCCNC(=N)N)C(N)=O)CSSC[C@H](NC(=O)[C@H](Cc1c[nH]c3ccccc13)NC(=O)[C@@H](N)CCCCN)C(=O)N[C@@H](Cc1ccccc1)C(=O)N[C@@H](CCCNC(=N)N)C(=O)N[C@@H](C(C)C)C(=O)N2 [tachyplesin III] (H-KWCFRVCYRGICYRKCR-NH2; disulfide 3-16, 7-12 (inferred); N-terminus and C-terminus assumed)
[1]
  cell viability: declined sharply
[2]
  cell viability: Dramatic decreases in viability
[3]
  cell viability: Dramatic decreases in viability
FabG gene
  FabG expression by quantitative real-time PCR: elevations
P. aeruginosa 1409
  Fold change after Ta treatment, gene PADK2_09275 (3-hydroxyacyl-CoA dehydrogenase): 2.04
  Fold change after Ta treatment, gene PADK2_25405 (3-ketoacyl-acyl carrier protein reductase): 2.71
E. coli 513
  Fold change after Ta treatment, gene b1093 (3-ketoacyl-acyl carrier protein reductase): 1.11
  Fold change after Ta treatment, gene b3846 (3-hydroxyacyl-CoA dehydrogenase): 2.3
